Assay results from ChEMBL document CHEMBL3611990, “Identification of Purines and 7-Deazapurines as Potent and Selective Type I Inhibitors of Troponin I-Interacting Kinase (TNNI3K)” (J Med Chem, 2015).
Values after ≈ are worked out from the molar mass of the structure shown.

Tests used:
[1] = target: T1, Serine/threonine-protein kinase TNNI3K (Homo sapiens, UniProt Q59H18); assay: Displacement of 5-({[2-({[3-({4-[(5-hydroxy-2-methylphenyl)amino]-2-pyrimidinyl}amino)phenyl]carbonyl}amino)-ethyl]amino}carbonyl)-2-(6-hydroxy-3-oxo-3H-xanthen-9-yl)benzoic acid from His6-MBP-TEV-full length human TNNI3K expressed in Baculovirus expression system after 60 mins by fluorescence polarization assay
T1 sequence (Q59H18 whole entry): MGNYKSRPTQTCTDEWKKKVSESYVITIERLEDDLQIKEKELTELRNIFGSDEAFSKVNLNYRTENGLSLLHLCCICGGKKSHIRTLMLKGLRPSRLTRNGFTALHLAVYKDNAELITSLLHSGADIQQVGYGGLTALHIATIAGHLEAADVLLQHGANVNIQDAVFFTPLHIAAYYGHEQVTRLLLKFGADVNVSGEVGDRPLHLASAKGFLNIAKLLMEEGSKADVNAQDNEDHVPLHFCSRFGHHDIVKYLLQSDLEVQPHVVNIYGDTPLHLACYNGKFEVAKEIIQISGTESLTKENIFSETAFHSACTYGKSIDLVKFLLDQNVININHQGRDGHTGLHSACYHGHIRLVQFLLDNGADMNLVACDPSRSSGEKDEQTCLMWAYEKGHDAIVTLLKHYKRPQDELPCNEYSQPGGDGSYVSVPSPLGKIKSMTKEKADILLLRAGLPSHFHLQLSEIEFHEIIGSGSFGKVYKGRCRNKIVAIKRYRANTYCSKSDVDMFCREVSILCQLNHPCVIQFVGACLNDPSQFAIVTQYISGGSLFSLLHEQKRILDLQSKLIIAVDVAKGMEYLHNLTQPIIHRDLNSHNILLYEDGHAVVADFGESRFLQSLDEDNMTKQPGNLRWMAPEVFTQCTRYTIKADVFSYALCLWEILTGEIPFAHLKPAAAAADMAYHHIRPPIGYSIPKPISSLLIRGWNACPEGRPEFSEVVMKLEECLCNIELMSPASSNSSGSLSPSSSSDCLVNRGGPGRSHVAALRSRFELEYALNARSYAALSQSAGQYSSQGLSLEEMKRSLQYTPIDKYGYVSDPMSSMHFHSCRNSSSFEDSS

[2] = target: Serine/threonine-protein kinase B-raf (Homo sapiens, UniProt P15056, V600E); assay: Inhibition of His6-tagged full length BRAF V600E mutant (2 to 766 residues) (unknown origin) expressed in Baculovirus expression system by BRAMA method
Serine/threonine-protein kinase B-raf, sequence (P15056 2-766 V600E limits assumed): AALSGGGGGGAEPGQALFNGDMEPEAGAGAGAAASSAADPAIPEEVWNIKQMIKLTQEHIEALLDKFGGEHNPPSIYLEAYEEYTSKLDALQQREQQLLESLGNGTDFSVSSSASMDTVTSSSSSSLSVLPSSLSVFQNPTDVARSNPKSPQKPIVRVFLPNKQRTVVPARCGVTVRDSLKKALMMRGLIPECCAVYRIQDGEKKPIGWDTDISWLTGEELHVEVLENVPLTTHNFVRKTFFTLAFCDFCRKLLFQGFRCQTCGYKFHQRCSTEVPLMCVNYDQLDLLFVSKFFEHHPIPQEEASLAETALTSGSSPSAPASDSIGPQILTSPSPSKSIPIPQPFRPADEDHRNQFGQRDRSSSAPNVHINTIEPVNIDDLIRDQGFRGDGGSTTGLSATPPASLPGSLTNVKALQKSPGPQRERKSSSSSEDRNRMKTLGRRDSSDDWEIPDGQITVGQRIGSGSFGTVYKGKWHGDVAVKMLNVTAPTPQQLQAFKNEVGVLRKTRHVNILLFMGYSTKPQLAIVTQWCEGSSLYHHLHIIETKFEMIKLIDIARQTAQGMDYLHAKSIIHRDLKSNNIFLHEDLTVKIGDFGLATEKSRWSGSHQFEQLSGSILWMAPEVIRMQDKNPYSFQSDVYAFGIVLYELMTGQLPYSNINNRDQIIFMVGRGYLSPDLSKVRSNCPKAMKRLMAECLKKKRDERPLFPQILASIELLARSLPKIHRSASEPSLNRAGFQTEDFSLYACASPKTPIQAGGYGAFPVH

[3] = system: Rattus norvegicus; assay: Dose normalized AUC in po dosed Sprague-Dawley rat by LC/MS/MS analysis; format: ADME, organism-based; conditions: in vivo
[4] = Plasma clearance in Sprague-Dawley rat at 1 mg/kg, iv by LC/MS/MS analysis; format: ADME, organism-based
[5] = target: T1, Serine/threonine-protein kinase TNNI3K; assay: Inhibition of human myc-tagged TNNI3K autophosphorylation overexpressed in HEKMSRII cells preincubated for 30 mins followed by pervanadate solution addition measured after 20 mins by DELFIA; format: cell-based
[6] = Oral bioavailability in Sprague-Dawley rat by LC/MS/MS analysis; format: ADME, organism-based; conditions: in vivo
[7] = Aqueous solubility of the compound; format: physicochemical
[8] = Volume of distribution at steady state in Sprague-Dawley rat by LC/MS/MS analysis; format: ADME, organism-based; conditions: in vivo, read-out: Vdss
[9] = target: T1, Serine/threonine-protein kinase TNNI3K; assay: Binding affinity to TNNI3K (unknown origin)

SMILES	IC50 [1] [nM]	IC50 [2] [nM]	AUC/dose [3] [kg·h/L]	further results
CN(C)S(=O)(=O)c1cccc(Nc2ncnc3[nH]cnc23)c1	8000	–	–	–
CNS(=O)(=O)c1cccc(Nc2ncnc3[nH]c(C(=O)O)cc23)c1	160	40	–	–
CNS(=O)(=O)c1cccc(Nc2ncnc3[nH]c(-c4ccccc4)cc23)c1	25	1	0.01	–
CNS(=O)(=O)c1ccc(N(C)C)c(Nc2ncnc3[nH]ccc23)c1	50	6	0.59	clearance [4]: 30 mL/min/kg; IC50 [5]: 50 nM; bioavailability [6]: 100%; solubility [7]: 330 µM (≈ 114 µg/mL)
CNS(=O)(=O)c1cccc(Nc2ncnc3[nH]cc(-c4ccc(CN)cc4)c23)c1	32	6	0	–
CNS(=O)(=O)c1ccc(N2CCOCC2)c(Nc2ncnc3[nH]ccc23)c1	40	8	0.15	clearance [4]: 39 mL/min/kg; IC50 [5]: 100 nM
CNS(=O)(=O)c1cccc(Nc2ncnc3[nH]cc(-c4cccc(Cl)c4)c23)c1	63	1	–	–
CNS(=O)(=O)c1ccc(N2CCOCC2)c(Nc2ncnc3[nH]cc(Br)c23)c1	< 10	0.5	0.32	IC50 [5]: 6.3 nM
CNS(=O)(=O)c1cccc(Nc2ncnc3[nH]ccc23)c1	80	50	0.08	Vd [8]: 1.4 L/kg; clearance [4]: 68 mL/min/kg; bioavailability [6]: 34%; solubility [7]: 50 µM (≈ 15.2 µg/mL)
CNS(=O)(=O)c1cccc(Nc2ncnc3[nH]c(Br)cc23)c1	50	16	0.26	–
CNS(=O)(=O)c1cccc(Nc2ncnc3[nH]c(-c4ccc(O)cc4)cc23)c1	13	1	–	–
CNS(=O)(=O)c1ccc(N(C)C)c(Nc2ncnc3[nH]cc(Br)c23)c1	< 10	0.2	0.04	IC50 [5]: 0.7 nM
CNS(=O)(=O)c1cccc(Nc2ncnc3[nH]c4ccccc4c23)c1	100	40	0.03	–
CNS(=O)(=O)c1cccc(Nc2nc(F)nc3[nH]cnc23)c1	3200	–	–	–
CNS(=O)(=O)c1cccc(Nc2ncnc3[nH]c(-c4ccc(C)cc4)cc23)c1	13	1	–	–
CNS(=O)(=O)c1ccc(N(C)C)c(Nc2ncnc3[nH]c(Br)cc23)c1	40	6.3	0.14	IC50 [5]: 40 nM
O=S(=O)(NO)c1cccc(Nc2ncnc3[nH]cnc23)c1	20000	–	–	–
CNS(=O)(=O)c1cccc(Nc2ncnc3[nH]cc(Cl)c23)c1	32	13	0.39	Vd [8]: 0.45 L/kg; clearance [4]: 20 mL/min/kg
CNS(=O)(=O)c1cccc(Nc2ncnc3[nH]cc(-c4ccncc4)c23)c1	100	32	0	–

SMILES	IC50 [1] [nM]	IC50 [2] [nM]	AUC/dose [3] [kg·h/L]	further results
CNS(=O)(=O)c1cccc(Nc2ncnc3[nH]c(-c4cccc(C)c4)cc23)c1	13	1	0.01	–
CNS(=O)(=O)c1cccc(Nc2ncnc3[nH]cnc23)c1	500	32	0	Kd [9]: 111 nM
CNS(=O)(=O)c1cccc(Nc2ncnc3[nH]cc(Br)c23)c1	32	5	0.55	Vd [8]: 0.63 L/kg; clearance [4]: 23 mL/min/kg
CNS(=O)(=O)c1cccc(Nc2ncnc3[nH]cc(-c4ccc(C(=O)O)cc4)c23)c1	100	16	0	–
CNS(=O)(=O)c1cccc(Nc2ncnc3[nH]c(-c4cccc(C(F)(F)F)c4)cc23)c1	63	6	0.14	–
CNS(=O)(=O)c1cccc(Nc2ncnc3[nH]cc(-c4ccc(Cl)cc4)c23)c1	100	4	0.2	clearance [4]: 65 mL/min/kg
CNS(=O)(=O)c1ccc(N(C)C)c(Nc2ncnc3[nH]cc(C)c23)c1	< 10	0.5	–	IC50 [5]: 1.6 nM
CNS(=O)(=O)c1cccc(Nc2ncnc3[nH]cc(F)c23)c1	126	79	0.28	–
CNS(=O)(=O)c1ccc(Cl)c(Nc2ncnc3[nH]ccc23)c1	20	32	–	–
CNS(=O)(=O)c1cccc(Nc2ncnc3[nH]cc(CC(C)C)c23)c1	126	40	–	–
CNS(=O)(=O)c1cccc(Nc2ncnc3[nH]ncc23)c1	50	–	–	clearance [4]: 72 mL/min/kg; bioavailability [6]: 5%
CNS(=O)(=O)c1cccc(Nc2ncnc3c2CC(=O)N3)c1	400	–	–	–
CNS(=O)(=O)c1cccc(Nc2nc(Cl)nc3[nH]cnc23)c1	16000	–	–	–
CNS(=O)(=O)c1ccc(N2CCOCC2)c(Nc2ncnc3[nH]cc(C)c23)c1	13	1.3	–	IC50 [5]: 7.9 nM
CNS(=O)(=O)c1cccc(Nc2ccnc3[nH]ccc23)c1	8000	–	–	–
CNS(=O)(=O)c1cccc(Nc2ncnc3[nH]cc(C)c23)c1	40	63	0.18	–
CNS(=O)(=O)c1ccc(C)c(Nc2ncnc3[nH]cnc23)c1	500	–	–	–
CNS(=O)(=O)c1cccc(Nc2ncnc3[nH]cc(-c4ccccc4)c23)c1	40	4	0.05	clearance [4]: 93 mL/min/kg
CNS(=O)(=O)c1cccc(Nc2ncnc3c2ncn3C)c1	> 25000	–	–	–

SMILES	IC50 [1] [nM]	IC50 [2] [nM]	AUC/dose [3] [kg·h/L]	further results
CNS(=O)(=O)c1cccc(Nc2ncnc3c2ccn3C)c1	> 25000	–	–	–
CCS(=O)(=O)c1cccc(Nc2ncnc3[nH]cnc23)c1	6300	–	–	–
CNS(=O)(=O)c1ccc(N2CCOCC2)c(Nc2ncnc3[nH]c(Br)cc23)c1	126	8	0.09	IC50 [5]: 398 nM
CNS(=O)(=O)c1cccc(Nc2ncnc3[nH]cc(-c4ccccc4Cl)c23)c1	40	10	–	–
CNS(=O)(=O)c1cncc(Nc2ncnc3[nH]ccc23)c1	250	–	–	–
CNS(=O)(=O)c1cccc(Nc2ncnc3[nH]cc(C(C)C)c23)c1	126	79	0.06	–
CNS(=O)(=O)c1cccc(Nc2ncnc3[nH]c(-c4ccncc4)cc23)c1	20	1	0	–
CNS(=O)(=O)c1cccc(Oc2ncnc3[nH]ccc23)c1	16000	–	–	–
CNS(=O)(=O)c1ccc(N(C)C)c(Nc2ncnc3[nH]c(-c4cccc(C(F)(F)F)c4)cc23)c1	13	0.6	–	IC50 [5]: 16 nM
CNS(=O)(=O)c1ccc(N2CCOCC2)c(Nc2ncnc3[nH]c(-c4cccc(C(F)(F)F)c4)cc23)c1	16	1.3	–	IC50 [5]: 10 nM
CNS(=O)(=O)c1ccc(C)c(Nc2ncnc3[nH]ccc23)c1	630	–	–	–
CNS(=O)(=O)c1cccc(Nc2ncnc3[nH]cc(-c4ccc(OC)cc4)c23)c1	50	4	0.06	–
CNS(=O)(=O)c1cccc(Nc2ncnc3[nH]c(-c4ccccc4C)cc23)c1	13	6	–	–
CNS(=O)(=O)c1cc(Nc2ncnc3[nH]cnc23)ccc1C	13000	–	–	–
CNS(=O)(=O)c1cccc(N(C)c2ncnc3[nH]ccc23)c1	5000	–	–	–
CNS(=O)(=O)c1cccc(Nc2nc(N)nc3[nH]cnc23)c1	8000	–	–	–
CNc1ccc(S(=O)(=O)NC)cc1Nc1ncnc2[nH]ccc12	6300	1000	–	–
NS(=O)(=O)c1cccc(Nc2ncnc3[nH]cnc23)c1	40000	–	–	–
CCNS(=O)(=O)c1cccc(Nc2ncnc3[nH]cnc23)c1	2000	–	–	–
